Measurements reported in patent publication US12134610B2, “Somatostatin subtype-2 receptor (SST2R) targeted therapeutics and uses thereof” (priority 2022, dated 2024).
Where two headings read alike, the source gives them in different places. Starred links: 1 amine or outer side, 2 acyl side, 3 side chain; linkers in the order of their positions; H or OH if unused. Non-standard residues stand in square brackets, D forms with d. Residues, ends and D or L forms follow the SMILES beside them. *: point of attachment. X4 = Cc1cc(F)cc(-c2cnc(NCCNC(=O)CCOCCOCCOCCOCCC(=O)*)c(-c3nc4ccc(Cl)cc4[nH]3)c2N2CCC(N)CC2)c1; X1 = Cc1cc(F)cc(-c2cnc(NCCNC(=O)CCOCCC(=O)*)c(-c3nc4ccc(Cl)cc4[nH]3)c2N2CCC(N)CC2)c1; Dolaproine = CO[C@@H]([C@@H]1CCCN1)[C@@H](C)C(=O)O; Dil = CC[C@H](C)[C@H](NC)[C@@H](CC(=O)O)OC; PABC = O=C(OCc1ccc(N[*:1])cc1)[*:2]; X2 = C[C@@H](N*)[C@@H](O)c1ccccc1; Cit = NC(=O)NCCC[C@H](N)C(=O)O; NMeV = CN[C@H](C(=O)O)C(C)C

Experiments:
Assay type in all cases: cell-based
[1] = target: T1, human somatostatin receptor subtype 2 (Homo sapiens, UniProt P30874); assay: Functional cAMP assay for SSTR2 agonists (HTRF) in CHO-K1 cells; settings: CHO-K1 cells stably expressing human SST2, 20 min
T1 construct: expressed in transfected cells
T1 sequence (P30874 whole entry): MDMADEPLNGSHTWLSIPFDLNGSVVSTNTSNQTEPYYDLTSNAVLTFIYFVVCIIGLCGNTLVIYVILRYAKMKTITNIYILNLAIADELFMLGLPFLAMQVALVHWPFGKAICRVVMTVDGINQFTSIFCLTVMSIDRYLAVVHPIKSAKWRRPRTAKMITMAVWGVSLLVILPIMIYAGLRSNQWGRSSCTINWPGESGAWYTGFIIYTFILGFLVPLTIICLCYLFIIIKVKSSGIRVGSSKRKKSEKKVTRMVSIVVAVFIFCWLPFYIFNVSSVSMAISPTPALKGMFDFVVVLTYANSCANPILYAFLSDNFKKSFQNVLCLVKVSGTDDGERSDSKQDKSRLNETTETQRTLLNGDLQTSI
Procedure, shortened: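 Agonism scored as loss of NKH477 (1.6 μM)-driven cAMP, with IBMX present, after 20 min, 37° C. exposure of stably transfected CHO-K1 cells to compound dilutions (typically 0-10,000 nM). Lysates read by time-resolved FRET; cAMP interpolated from standard curve and EC50 derived.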

[2] = target: T2, SST2 (Homo sapiens, UniProt P30874); assay: PathHunter CHO-K1 SST2 internalization assay; settings: PathHunter CHO-K1 SST2, 90 min
T2 construct: host or cells: PathHunter CHO-K1 SST2 cells
T2 sequence (P30874 whole entry): as above
Procedure, shortened: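 IC50 comes from four-parameter curves on background-corrected duplicates of Beta-Glo luminescence, read after 60 min at room temperature in the dark. Before that, CHO-K1 SST2 internalization cells (48 h post-seeding) received SMDC as eleven threefold dilutions, 10 uM highest final, for 90 min at 37 C.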

[3] = tested on: NCI-H524 (ATCC) human small cell lung cancer cells
Procedure, shortened: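 CellTiter-Glo luminescence after a 2 h SMDC pulse (top dose 1 uM, 2-fold dilutions, 11 points), medium wash, then 70 h recovery. Cells were seeded at 5,000/well and dosed 24 h later. % inhibition vs control gave IC50 via four-parameter fit.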

SMILES | EC50 ([1]; read-out: hSST2 cAMP Avg EC50) [nM] | EC50 ([2]; read-out: Internalization EC50) [nM] | EC50 ([3]; 2 h) [nM] | EC50 ([1]; hSST2 cAMP Avg EC50 (nM)) [nM] | EC50 ([2]; Internalization EC50 (nM)) [nM] | EC50 ([3]; 2 h treatment, washout, additional 70 h, read-out: H524 EC50) [nM]
CC[C@H](C)[C@@H]([C@@H](CC(=O)N1CCC[C@H]1[C@H](OC)[C@@H](C)C(=O)N[C@H](C)[C@@H](O)c1ccccc1)OC)N(C)C(=O)[C@@H](NC(=O)[C@H](C(C)C)N(C)C(=O)OCc1ccc(NC(=O)[C@H](CCCNC(N)=O)NC(=O)[C@@H](CC(=O)CCOCCNCCNc2ncc(-c3cc(C)cc(F)c3)c(N3CCC(N)CC3)c2-c2nc3ccc(Cl)cc3[nH]2)C(C)C)cc1C(=O)NCCN)C(C)C [Compound 87] | 0.4 | 26 | 42 | – | – | –
CC[C@H](C)[C@@H]([C@@H](CC(=O)N1CCC[C@H]1[C@H](OC)[C@@H](C)C(=O)N[C@H](C)[C@@H](O)c1ccccc1)OC)N(C)C(=O)[C@@H](NC(=O)[C@H](C(C)C)N(C)C(=O)OCc1ccc(NC(=O)[C@H](CCCNC(N)=O)NC(=O)[C@@H](NCCOCCOCCOCCOCCC(=O)NCCNc2ncc(-c3cc(C)cc(F)c3)c(N3CCC(N)CC3)c2-c2nc3ccc(Cl)cc3[nH]2)C(C)C)cc1)C(C)C [Compound 69] | 0.25 | 7.8 | 14.5 | – | – | –
CC[C@H](C)[C@@H]([C@@H](CC(=O)N1CCC[C@H]1[C@H](OC)[C@@H](C)C(=O)N[C@H](C)[C@@H](O)c1ccccc1)OC)N(C)C(=O)[C@@H](NC(=O)[C@H](C(C)C)N(C)C(=O)OCc1ccc(NC(=O)[C@H](CCCNC(N)=O)NC(=O)[C@@H](NC(=O)[C@H](CC(=O)O)NC(=O)[C@H](CC(=O)O)NC(=O)[C@H](CC(=O)O)NC(=O)CCOCCC(=O)NCCNc2ncc(-c3cc(C)cc(F)c3)c(N3CCC(N)CC3)c2-c2nc3ccc(Cl)cc3[nH]2)C(C)C)cc1)C(C)C [Compound 108] (X1-DDDV[Cit][PABC][NMeV]V[Dil][Dolaproine]-X2) | 1.9 | 53 | 3300 | – | – | –
CC[C@@]1(O)C(=O)OCc2c1cc1n(c2=O)Cc2c-1nc1cc(F)c(C)c3c1c2[C@@H](NC(=O)OCc1ccc(NC(=O)[C@H](CCCNC(N)=O)NC(=O)[C@@H](NC(=O)[C@H](CCC(=O)O)NC(=O)CCOCCC(=O)NCCNc2ncc(-c4cc(C)cc(F)c4)c(N4CCC(N)CC4)c2-c2nc4ccc(Cl)cc4[nH]2)C(C)C)cc1C(=O)NCCN)CC3 [Compound 94] | – | – | – | 0.16 | 2.4 | 260
CCC(C)C(C(CC(=O)N1CCCC1C(OC)C(C)C(=O)NC(C)C(O)c1ccccc1)OC)N(C)C(=O)C(NC(=O)C(C(C)C)N(C)C(=O)OCc1ccc(NC(=O)[C@H](CCCNC(N)=O)NC(=O)[C@@H](NC(=O)CCOCCOCCOCCOCCOCCOCCC(=O)NCCNc2ncc(-c3cc(C)cc(F)c3)c(N3CCC(N)CC3)c2-c2nc3ccc(Cl)cc3[nH]2)C(C)C)cc1)C(C)C (stereo in doubt) [Compound 40] | 0.36 | 26.4 | 46.5 | – | – | –
CC[C@H](C)[C@@H]([C@@H](CC(=O)N1CCC[C@H]1[C@H](OC)[C@@H](C)C(=O)N[C@H](C)[C@@H](O)c1ccccc1)OC)N(C)C(=O)[C@@H](NC(=O)[C@H](C(C)C)N(C)C(=O)OCc1ccc(NC(=O)[C@H](CCCNC(N)=O)NC(=O)[C@@H](NC(=O)CCOCCOCCOCCOCCC(=O)NCCNc2ncc(-c3cc(C)cc(F)c3)c(N3CCC(N)CC3)c2-c2nc3ccc(Cl)cc3[nH]2)C(C)C)c(O[C@@H]2O[C@H](C(=O)O)[C@@H](O)[C@H](O)[C@H]2O)c1)C(C)C [Compound 62] | 0.2 | 14 | 61.2 | – | – | –
CC[C@H](C)[C@@H]([C@@H](CC(=O)N1CCC[C@H]1[C@H](OC)[C@@H](C)C(=O)N[C@H](C)[C@@H](O)c1ccccc1)OC)N(C)C(=O)[C@@H](NC(=O)[C@H](C(C)C)N(C)C(=O)OCc1ccc(NC(=O)[C@H](C)NC(=O)[C@@H](NC(=O)CCNCCC(=O)NCCNc2ncc(-c3cc(C)cc(F)c3)c(N3CCC(N)CC3)c2-c2nc3ccc(Cl)cc3[nH]2)C(C)C)c(O[C@@H]2O[C@H](C(=O)O)[C@@H](O)[C@H](O)[C@H]2O)c1)C(C)C [Compound 155] | 0.24 | 29 | 71 | – | – | –
CC[C@H](C)[C@@H]([C@@H](CC(=O)N1CCC[C@H]1[C@H](OC)[C@@H](C)C(=O)N[C@H](C)[C@@H](O)c1ccccc1)OC)N(C)C(=O)[C@@H](NC(=O)[C@H](C(C)C)N(C)C(=O)OCc1ccc(NC(=O)[C@H](C)NC(=O)[C@@H](NC(=O)[C@H](CS(=O)(=O)O)NC(=O)CCOCCC(=O)NCCNc2ncc(-c3cc(C)cc(F)c3)c(N3CCC(N)CC3)c2-c2nc3ccc(Cl)cc3[nH]2)C(C)C)cc1C(=O)NCCN)C(C)C [Compound 117] | 0.081 | 2.6 | 3.7 | – | – | –
CC[C@H](C)[C@@H]([C@@H](CC(=O)N1CCC[C@H]1[C@H](OC)[C@@H](C)C(=O)N[C@@H](Cc1ccccc1)C(=O)O)OC)N(C)C(=O)[C@@H](NC(=O)[C@H](C(C)C)N(C)C(=O)OCc1ccc(NC(=O)[C@H](CCCNC(N)=O)NC(=O)[C@@H](NC(=O)CCOCCOCCOCCOCCC(=O)NCCNc2ncc(-c3cc(C)cc(F)c3)c(N3CCC(N)CC3)c2-c2nc3ccc(Cl)cc3[nH]2)C(C)C)cc1)C(C)C [Compound 42] (X4-V[Cit][PABC][NMeV]V[Dil][Dolaproine]F-OH) | 0.12 | 8.6 | 57.3 | – | – | –
CC[C@H](C)[C@@H]([C@@H](CC(=O)N1CCC[C@H]1[C@H](OC)[C@@H](C)C(=O)N[C@H](C)[C@@H](O)c1ccccc1)OC)N(C)C(=O)[C@@H](NC(=O)[C@H](C(C)C)N(C)C(=O)OCc1ccc(NC(=O)[C@H](CCCNC(N)=O)NC(=O)[C@@H](NC(=O)[C@H](CCC(=O)O)NC(=O)CCOCCOCCOCCOCCC(=O)NCCNc2ncc(-c3cc(C)cc(F)c3)c(N3CCC(N)CC3)c2-c2nc3ccc(Cl)cc3[nH]2)C(C)C)cc1)C(C)C [Compound 52] | 0.24 | 9.1 | 48 | – | – | –
COc1cc2cc(c1Cl)N(C)C(=O)CC(OC(=O)[C@@H](C)N(C)C(=O)CCSSCCNC(=O)CN1CCN(CC(=O)O)CCN(CC(=O)NCCNc3ncc(-c4cc(C)cc(F)c4)c(N4CCC(N)CC4)c3-c3nc4ccc(Cl)cc4[nH]3)CC1)[C@]1(C)OC1[C@@H](C)C1C[C@@](O)(NC(=O)O1)[C@H](OC)/C=C/C=C(\C)C2 (stereo partly drawn) [Compound 9] | 0.13 | 7.7 | 379 | – | – | –
CC[C@H](C)[C@@H]([C@@H](CC(=O)N1CCC[C@H]1[C@H](OC)[C@@H](C)C(=O)N[C@H](C)[C@@H](O)c1ccccc1)OC)N(C)C(=O)[C@@H](NC(=O)[C@H](C(C)C)N(C)C(=O)OCc1ccc(NC(=O)[C@H](CCCNC(N)=O)NC(=O)[C@@H](NC(=O)CN2CCN(CC(=O)O)CCN(CC(=O)NCCOCCC(=O)NCCNc3ncc(-c4cc(C)cc(F)c4)c(N4CCC(N)CC4)c3-c3nc4ccc(Cl)cc4[nH]3)CC2)C(C)C)cc1)C(C)C [Compound 55] | 0.17 | 8.3 | 35 | – | – | –
CC[C@H](C)[C@@H]([C@@H](CC(=O)N1CCC[C@H]1[C@H](OC)[C@@H](C)C(=O)N[C@H](C)[C@@H](O)c1ccccc1)OC)N(C)C(=O)[C@@H](NC(=O)[C@H](C(C)C)N(C)C(=O)OCc1ccc(NC(=O)[C@H](C)NC(=O)[C@@H](NC(=O)[C@H](CCC(N)=O)NC(=O)CCOCCC(=O)NCCNc2ncc(-c3cc(C)cc(F)c3)c(N3CCC(N)CC3)c2-c2nc3ccc(Cl)cc3[nH]2)C(C)C)cc1C(=O)NCCN)C(C)C [Compound 118] | 0.068 | 3.8 | 0.65 | – | – | –
CC[C@H](C)[C@@H]([C@@H](CC(=O)N1CCC[C@H]1[C@H](OC)[C@@H](C)C(=O)N[C@H](C)[C@@H](O)c1ccccc1)OC)N(C)C(=O)[C@@H](NC(=O)[C@H](C(C)C)N(C)C(=O)OCc1ccc(NC(=O)[C@H](CCCNC(N)=O)NC(=O)[C@@H](NC(=O)[C@H](CCC(N)=O)NC(=O)CCOCCC(=O)NCCNc2ncc(-c3cc(C)cc(F)c3)c(N3CCC(N)CC3)c2-c2nc3ccc(Cl)cc3[nH]2)C(C)C)cc1)C(C)C [Compound 56] (X1-QV[Cit][PABC][NMeV]V[Dil][Dolaproine]-X2) | 0.23 | 15.1 | 10.3 | – | – | –
CC[C@H](C)[C@@H]([C@@H](CC(=O)N1CCC[C@H]1[C@H](OC)[C@@H](C)C(=O)N[C@H](C)[C@@H](O)c1ccccc1)OC)N(C)C(=O)[C@@H](NC(=O)[C@H](C(C)C)N(C)C(=O)OCc1ccc(NC(=O)[C@H](C)NC(=O)[C@@H](NC(=O)[C@H](CCC(=O)O)NC(=O)CCOCCC(=O)NCCNc2ncc(-c3cc(C)cc(F)c3)c(N3CCC(N)CC3)c2-c2nc3ccc(Cl)cc3[nH]2)C(C)C)c(O[C@@H]2O[C@H](C(=O)O)[C@@H](O)[C@H](O)[C@H]2O)c1)C(C)C [Compound 145] | 0.25 | 7.9 | 150 | – | – | –
CC[C@H](C)[C@@H]([C@@H](CC(=O)N1CCC[C@H]1[C@H](OC)[C@@H](C)C(=O)N[C@H](C)[C@@H](O)c1ccccc1)OC)N(C)C(=O)[C@@H](NC(=O)[C@H](C(C)C)N(C)C(=O)OCc1ccc(NC(=O)[C@H](CCCNC(N)=O)NC(=O)[C@@H](NC(=O)CCOCCC(=O)NCCNc2ncc(-c3cc(C)cc(F)c3)c(N3CCC(N)CC3)c2-c2nc3ccc(Cl)cc3[nH]2)C(C)C)c(O[C@@H]2O[C@H](C(=O)O)[C@@H](O)[C@H](O)[C@H]2O)c1)C(C)C [Compound 132] | 0.2 | 5.7 | 22 | – | – | –
